Experimental data published in patent publication US20260242394A1, “USP2 INHIBITORS AND METHODS OF USING THE SAME FOR THE TREATMENT OF DISEASES” (ICAHN SCHOOL OF MEDICINE AT MOUNT SINAI, priority 2023, published 2026).
pIC50: −log10 of the molar value.

Key:
[1] = biological target: T1, USP2 (Homo sapiens, UniProt O75604); assay: biochemical
T1 sequence (O75604 259-605 limits assumed): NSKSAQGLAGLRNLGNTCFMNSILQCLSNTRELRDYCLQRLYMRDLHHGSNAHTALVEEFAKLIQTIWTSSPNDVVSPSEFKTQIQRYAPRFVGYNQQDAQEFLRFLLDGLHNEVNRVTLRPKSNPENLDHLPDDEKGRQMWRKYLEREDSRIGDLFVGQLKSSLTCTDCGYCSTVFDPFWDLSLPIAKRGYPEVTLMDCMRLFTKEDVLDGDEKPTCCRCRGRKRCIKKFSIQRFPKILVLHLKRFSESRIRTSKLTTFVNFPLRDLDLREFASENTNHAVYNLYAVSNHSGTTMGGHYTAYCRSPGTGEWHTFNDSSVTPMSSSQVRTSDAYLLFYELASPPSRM
Protocol: (FIG. 4) IC50 determination of selected USP2 inhibitors using USP2 enzymatic activity assays.
The USP2 (E-504-050, R & D Systems) and SARS-CoV-2 PLpro (100735, BPS Bioscience) deubiquitinase activity was determined with the DUB Activity Assay Kit (701490, Cayman), slightly modified based on the manufacturer's instructions. Briefly, the inhibitors were diluted as indicated with 40 μL of 1×DUB assay buffer, followed by adding 5 μL of DUB proteins. The plate was covered and incubated with the DUB-inhibitor mix at 37° C. for 30 minutes. Then, the plate cover was removed, and the reactions were initiated by quickly adding 5 μL of Ubiquitin-AMC to all wells being used. The fluorescence was read in an Infinite M1000 microplate reader (Tecan), with an excitation wavelength of 360 nm and emission wavelength of 460 nm. The DUB activity was calculated using the formulation provided by the kit.

[2] = test system: ACE2 and cyclin D1 protein levels in HepG2 cells; assay: Immunoblotting of ACE2 and cyclin D1 protein levels in HepG2 cells
Protocol: (FIG. 5) Screening of selected USP2 inhibitors in HepG2 cells using immunoblotting experiments. (a,b) The effect of selected USP2 inhibitors (5 M) on modulating the protein levels of ACE2 and cyclin D1 in HepG2 cells. […] (d) The effect of selected USP2 inhibitors (1 and 5 μM) on modulating the protein levels of ACE2 and cyclin D1 in HepG2 cells. (e-f) The effect of selected USP2 inhibitors (5 M) on modulating the protein levels of ACE2 and cyclin D1 in HepG2 cells.
In brief, cells were lysed in protease and phosphatase inhibitor-contained EBC buffer (50 mM Tris-HCl, pH 7.4; 120 mM NaCl; 0.5% NP-40). Protein concentrations were determined, and an equal amount of protein samples were harvested, followed by adding 5×SDS loading buffer (312 mM Tris-HCl, 10% SDS, 25 mM P-mercaptoethanol, 50% glycerol, and 0.05% bromophenol blue) and boiling for 10 min. SDS-PAGE electrophoresis, wet electroblotting, milk blocking, primary and secondary antibody incubation, and ECL development were conducted sequentially.

[3] = test system: H460 and A375 cells; assay: Cell viability assays in H460 and A375 cells; assay type: cell-based; details: FIGS. 9-11
Protocol: Example 217. (FIG. 9) Screening of selected USP2 inhibitors using cell viability assays. H460 cells were treated with […] of indicated compounds for 48 h, cell viabilities were indicated by the images of cell morphology. Example 218. (FIG. 10) Screening of selected USP2 inhibitors using cell viability assays. A375 cells were treated with indicated concentration of indicated compounds for 48 h, cell viabilities were indicated by the images of cell morphology. Example 219. (FIG. 11) GI50 determination of selected compounds in A375 cells after 48 hours treatment. 0.3 million of H460 cells were seeded in 6-well plate. Next day, cells were treated with 10 uM of drugs for 48 h. DMSO served as negative control. Images of cell morphology were obtained with Olympus IX51 microscope, indicating the cell viability upon treatment.

[4] = test system: P53 and P21 protein levels in H460 and A375 cells; assay: Immunoblotting of p53 and p21 protein levels in H460 and A375 cells; assay type: cell-based; details: FIGS. 12-13
Protocol: Example 220. (FIG. 12) Screening of selected USP2 inhibitors in H460 cells using immunoblotting experiments. The effect of selected USP2 inhibitors (10 μM, 48 h treatment time) on modulating the protein levels of p53 and p21 in H460 cells. Example 221. (FIG. 13) Screening of selected USP2 inhibitors in A375 cells using immunoblotting experiments. The effect of selected USP2 inhibitors with indicated concentration after indicated treatment time on modulating the protein levels of p53 and p21 in A375 cells. Whole cell extracts were prepared with Flag lysis buffer (50 mM Tris-HCl, pH 8.0, 137 mM NaCl, 1 mM NaF, 1 mM NaVO3, 1% Triton X-100, 0.2% sarkosyl, 0.5 mM DTT, 0.5 mM PMSF and 10% glycerol) containing fresh-added protease inhibitors. For cytosolic and nuclear fractions, the cell pellet was firstly incubated with Harvest buffer (10 mM Hepes (pH 8.0), 50 mM NaCl, 0.5 M sucrose, 0.1 mM EDTA, and 0.25% Triton X-100) containing fresh-added protease inhibitors for 5 min on ice followed by centrifugation @120 g for 10 min. The supernatant was cytosolic fraction. After wash twice with buffer A (10 mM Hepes (pH 8.0), 10 mM KCl, 0.1 mM EDTA, and 0.1 mM EGTA), nuclear pellet was lyzed with BC100 (50 mM Tris-HCl, pH 8.0, 100 mM NaCl, 0.2% Triton X-100, and 10% glycerol) containing fresh-added protease inhibitors for 30 min on ice to get the nuclear fraction. Protein concentration was measured with the protein assay dye reagent (Bio-Rad, Cat #5000006) as manufacturer's user guide. 20-60 μg total proteins were loaded to and separated in SDS-PAGE precast gels, then transferred to nitrocellulose membrane. After incubation with primary antibodies for overnight at 4° C., HRP-conjugated secondary antibodies were used, and western blot signals were detected on autoradiographic films after incubating with ECL substrate.

[5] = In vivo mouse PK studies; details: plasma, po, 10 mg/kg
Protocol: Example 222. (FIG. 14) PK results of selected compounds. (a) Plasma concentrations of MS102 and ML346 over 24 h after i.p. injection at 50 mg/kg dose. (b) Plasma concentrations of MS102 over 24 h using different administration routes: […]. (50 mg/kg) by. (c) Plasma concentrations of […]161-180 and XH153-182 over 8 h at 5 mg/kg dose by i.p. injection. (d) Plasma concentrations of XH161-172 over 24 h using different administration routes: […]) Plasma concentrations of XH161-180 over 24 h using different administration routes: […]. (10 mg/kg). Pharmacokinetic studies for ML364, MS102, MS1172, MS1180 and XH153-182 were performed by Sai Life Sciences Limited (India). Experiments were design with 3 mice/time point/compound. Animals were administered intraperitoneally, intravenously as slow bolus injection through tail vein, or through oral route with solution formulation of indicated compound at indicated dose. […] Blood samples (approximately 60 μL) were collected under light isoflurane anesthesia (Surgivet®) from a set of three mice at different time points. Immediately after blood collection, plasma was harvested by centrifugation at 4000 rpm, 10 min at 4° C., and samples were stored at -70±10° C. until bioanalysis. All samples were processed for analysis by protein precipitation method and analyzed with the fit-for-purpose LC-MS/MS method (LLOQ=1.01 ng/mL). […]

Structure (SMILES) | pIC50 [1] | ACE2 protein level [2] | antiproliferation effect [3] | tumor suppressors P53 and P21 protein levels [4] | bioavailability [5] [%]
Cc1ccc(S(=O)(=O)Nc2ccc(C(F)(F)F)cc2C(=O)Nc2nc(-c3ccc(Br)cc3)cs2)cc1 [XH161-102 (MS102), N-(4-(4-bromophenyl)thiazol-2-yl)-2-((4-methylphenyl)sulfonamido)-5-(trifluoromethyl)benzamide] | 5.30 | dose-dependent reduce | – | – | –
O=C(Nc1nc(-c2ccc(F)cc2)cs1)c1ccc(F)cc1NC(=O)C(F)(F)F [XH198-68p2, 4-Fluoro-N-(4-(4-fluorophenyl)thiazol-2-yl)-2-(2,2,2-trifluoroacetamido)benzamide] | – | – | antiproliferation effect | elevating | –
CC(C)S(=O)(=O)Nc1cc(F)ccc1C(=O)Nc1nc(-c2ccc(Br)cc2)cs1 [MS1172, N-(4-(4-bromophenyl)thiazol-2-yl)-4-fluoro-2-((1-methylethyl)sulfonamido)benzamide] | – | – | antiproliferation effect | elevating | 100
O=C(Nc1cc(F)ccc1C(=O)Nc1nc(-c2ccc(F)cc2)cs1)c1ccc(C(F)(F)F)cc1 [XH208-93p2, 4-Fluoro-N-(4-(4-fluorophenyl)thiazol-2-yl)-2-(4-(trifluoromethyl)benzamido)benzamide] | – | – | antiproliferation effect | elevating | –
Cc1ccc(S(=O)(=O)Nc2cc(F)ccc2C(=O)Nc2nccs2)cc1 [XH153-182, 4-fluoro-2-((4-methylphenyl)sulfonamido)-N-(thiazol-2-yl)benzamide] | – | – | antiproliferation effect | elevating | –
O=C(Nc1nc(-c2ccc(Br)cc2)cs1)c1ccc(F)cc1NC(=O)C(F)(F)F [XH188-135p2, N-(4-(4-Bromophenyl)thiazol-2-yl)-4-fluoro-2-(2,2,2-trifluoroacetamido)benzamide] | – | – | antiproliferation effect | elevating | –
O=C(Nc1nc(-c2ccc(Br)cc2)cs1)c1ccc(F)cc1NS(=O)(=O)C1CCCCC1 [MS1180, N-(4-(4-bromophenyl)thiazol-2-yl)-2-(cyclohexanesulfonamido)-4-fluorobenzamide] | – | – | antiproliferation effect | elevating | 95
O=c1c2ccc(F)cc2nc(C(F)(F)F)n1-c1nc(-c2ccc(Br)cc2)cs1 [XH188-135p1, 3-(4-(4-Bromophenyl)thiazol-2-yl)-7-fluoro-2-(trifluoromethyl)quinazolin-4(3H)-one] | – | – | antiproliferation effect | elevating | –
